Assay results from patent US20140030808A1, “Method for Cellular RNA Expression” (BIONTECH AG, priority 2010, published 2014).

How the values were obtained:
Assay type in all cases: cell-based
[1] = test system: Primary human foreskin fibroblasts (CCD1079SK); test: Induction of type-I interferon transcripts (qRT-PCR) after IVT RNA electroporation; settings: 2 μM C13H8N4OS
Protocol: Primary human foreskin fibroblasts (CCD1079SK) were electroporated with 1 μg IVT RNA encoding for firefly luciferase and 5 μg IVT RNA encoding for destabilized GFP (luc+GFP). The cells were either left untreated or incubated with 2 μM C13H8N4OS (PKR-inhibitor). Upregulation of interferon-alpha and interferon-betatranscripts in human fibroblasts induced by RNA electroporation was observed (FIGS. 1A and 1C).
Total cellular RNA was extracted from cells with RNeasy Mini Kit or RNeasy Micro Kit (Qiagen, Hilden, Germany), reverse transcribed with oligo-dT18 using Superscript II (Invitrogen, Carlsbad, Calif., USA), and subjected to real-time quantitative analysis on ABI PRISM 7700 Sequence Detection System instrument and software (Applied Biosystems, Foster City, Calif., USA) using the QuantiTect SYBR Green PCR Kit (Qiagen). Reactions were performed in triplicates with primer amplifying a specific region of the codon optimized
Primary human foreskin fibroblasts (CCD1079SK) were electroporated with 1 μg IVT RNA encoding for firefly luciferase and 5 μg IVT RNA encoding for destabilized GFP (luc+GFP). Electroporations were performed in 2 mm gap cuvettes using optimized parameters. The cells were plated in 6-well-plates at a density of 300000 cells/well and either left untreated or incubated with 2 μM C13H8N4OS (PKR-inhibitor). 24 h later cells were harvested for total RNA extraction and reverse transcription. The induction of type-I interferons was assessed by qRT-PCR using specific primer for IFNα or IFNβ in the presence or absence of PKR-inhibitor as indicated in FIG. 1. Panels A and C show the same samples as B and D with reduced values of the y-axis.

[2] = test system: Human primary CD4 and CD8 positive T-cells; settings: 0.5 μM to 2 μM
[3] = test system: Primary human foreskin fibroblasts (BJ, CCD1079Sk); test: Intracellular FACS staining of reprogramming transcription factors after IVT RNA transfer
Protocol: (AB) Primary human foreskin fibroblasts from different donors and suppliers (panel A: BJ fibroblasts; panel B: CCD1079Sk) and (C) MEFs were electroporated with 0.5 μg IVT RNA encoding for firefly luciferase and 1.25 μg IVT RNA encoding for eGFP and 2.5 μg of IVT RNA encoding for each of the individual reprogramming factors OCT4, SOX2, KLF4 and c-MYC. Electroporations were performed in 2 mm gap cuvettes using optimized parameters for each cell type. The cells were plated into 6-well-plates at a density of 250000 cells/well. The cells were either left untreated or incubated with increasing amounts of C13H8N4OS (PKR-inhibitor) ranging from 0.5 μM to 2 μM as indicated in the panel legend. The OCT4 expression was detected by intracellular staining with a fluorescently labeled antibody and measured by flow cytometry at the indicated time points. The mean fluorescence intensity (MFI) of the transfected OCT4-positive cell fractions is shown. (D) CCD1079Sk fibroblasts were electroporated with IVT RNA as in B and treated for 24 h or 48 h with 2 μM C13H8N4OS. 72 h post electroporation the cells were harvested and intracellular staining with fluorescent labeled antibodies reactive against the indicated transcription factors were performed. The MFI of the transcription factor-positive cell fractions are shown.
Intracellular FACS staining of OCT4, SOX2 and NANOG was done using the human pluripotent stem cell transcription factor analysis kit following the manufacturer's instructions (BD Bioscience). Briefly, 3-5×10^5 cells were harvested, washed twice with PBS and fixed for 20 min in 250 μl BD Cytofix Buffer (BD Biosciences) at room temperature. After the incubation cells were washed twice with PBS and permeabilized by washing twice with 1× Perm/Wash Buffer (BD Bioscience) followed by 10 minutes incubation in 50 μl 1× Perm/Wash at room temperature. […] Cells were resuspended in PBS supplemented with 2% formaldehyde and analyzed by flow cytometry as described above. […]

[4] = 2 μM for 24 h or 48 h, 72 h post electroporation

## O=C1Nc2ccc3ncsc3c2/C1=C/c1c[nH]cn1 [C13H8N4OS, 6,8-dihydro-8-(1H-imidazol-5-ylmethylene)-7H-pyrrolo[2,3-g]benzothiazol-7-one]
[1]; 24 h, with or without RNA
  IFN-α transcript induction: induced even in the absence of RNA
  IFN-β transcript induction: only in the presence of RNA
[1]; 24 h after electroporation with luc+GFP IVT RNA, vs untreated
  interferon transcripts (IFNα, IFNβ; qRT-PCR): overwhelming increase
[2]
  GFP expression (MFI): Neither in T-cells nor in iDCs PKR inhibition led to an increased GFP expression
[3]; 0.5 μM to 2 μM permanently or 2 μM for 24 h or 48 h
  OCT4 expression (MFI): strongly increased and stabilized
[3]; [4]
  Nanog expression (MFI): strongly increased and stabilized
  SOX2 expression (MFI): strongly increased and stabilized
